Results: patent USRE47512E1, “Imidazole and imidazolium resins and methods for preparing curable imidazolium antimicrobial resins” (DENTSPLY SIRONA INC., priority 2011, dated 2019)

Experiment: Solubility of resins @ 37° C.
Assay type: physicochemical

HEMA-based Monoimidazole-dimethacrylate Resin [Example 3a]
Solubility @ 37° C. in water (Table I): partially | Solubility @ 37° C. in water/ethanol (50:50, w/w %) (Table I): soluble

Isosorbide-based Bisimidazole-dimethacrylate Resin [Example 1]
Solubility @ 37° C. in water (Table I): partially | Solubility @ 37° C. in water/ethanol (50:50, w/w %) (Table I): soluble

Isosorbide-based Bisimidazoliumbromide-dimethacrylate Resin [Example 5]
Solubility @ 37° C. in EtOH (Table II, EtOH): soluble | Solubility @ 37° C. in water/ethanol (50:50, w/w %) (Table II): soluble

TCDC-based Bisimidazole-dimethacrylate Resin [Example 2]
Solubility @ 37° C. in water (Table I): partially | Solubility @ 37° C. in water/ethanol (50:50, w/w %) (Table I): soluble
